Consider 30 compounds from patent US20240109880A1 (Insilico Medicine IP Limited, priority 2021, published 2024).

A value given as a limit tells only on which side of the number the result lay.

The target in the experiment is KAT6A (Homo sapiens (Human), UniProt Q92794). In words: KAT6A Biochemical Assay (radiometric 384-well, [3H]-Ac-CoA, biotinylated H4(1-30) peptide). Conditions: 5 nM KAT6A enzyme solution (2×), 60 min reaction at room temperature. As for the experimental part: Inhibition of KAT6A enzymatic activity by test compounds was determined using a radiometric 384-well format assay. A 10-point serial dilution of the test compounds were conducted in DMSO and then a volume of 200 nL was transferred into 384-well assay plate by Echo (Labcyte). 10 μL of 2× enzyme solution (5 nM KAT6A (Active Motif) in assay buffer (50 mM Tris-HCl pH 8.0, 50 mM KCl, 0.1 mM EDTA, 5% glycerol, 1 mM DTT)) was dispensed into assay plate except for low control wells, in which 10 μL of assay buffer was transferred. The plate was incubated at room temperature for 15 min before addition of 10 μL of 2×[^3H]-acetyl coenzyme A (Ac-CoA) and substrate peptide mix solution (500 nM (KAT6A) [^3H]-Ac-CoA (PerkinElmer) and 800 nM (KAT6A) biotinylated H4(1-30) peptide (GL Biochem) in assay buffer) to each well to start reaction. The plate was incubated at room temperature for 60 min (KAT6A), and then the reaction was stopped by adding 10 μL of stop solution (cold Ac-CoA (Cayman) in 1× assay buffer). 25 μL of reaction in each well was transferred to Flashplate (PerkinElmer) and incubated for another 1 hour at room temperature. The plate was read on Microbeta and the inhibition percentage of each compound treated well was calculated based on the equation in h %=(Max−sample)/(Max−Min)*100 where Max is signal from high control wells with enzyme, and Min is signal from low control wells with assay buffer only. The in h % data were further fit in XL-Fit to obtain IC50 values using a 4-parameter logistic (4PL) sigmoidal curve model.
KAT6A, sequence (Q92794 whole entry): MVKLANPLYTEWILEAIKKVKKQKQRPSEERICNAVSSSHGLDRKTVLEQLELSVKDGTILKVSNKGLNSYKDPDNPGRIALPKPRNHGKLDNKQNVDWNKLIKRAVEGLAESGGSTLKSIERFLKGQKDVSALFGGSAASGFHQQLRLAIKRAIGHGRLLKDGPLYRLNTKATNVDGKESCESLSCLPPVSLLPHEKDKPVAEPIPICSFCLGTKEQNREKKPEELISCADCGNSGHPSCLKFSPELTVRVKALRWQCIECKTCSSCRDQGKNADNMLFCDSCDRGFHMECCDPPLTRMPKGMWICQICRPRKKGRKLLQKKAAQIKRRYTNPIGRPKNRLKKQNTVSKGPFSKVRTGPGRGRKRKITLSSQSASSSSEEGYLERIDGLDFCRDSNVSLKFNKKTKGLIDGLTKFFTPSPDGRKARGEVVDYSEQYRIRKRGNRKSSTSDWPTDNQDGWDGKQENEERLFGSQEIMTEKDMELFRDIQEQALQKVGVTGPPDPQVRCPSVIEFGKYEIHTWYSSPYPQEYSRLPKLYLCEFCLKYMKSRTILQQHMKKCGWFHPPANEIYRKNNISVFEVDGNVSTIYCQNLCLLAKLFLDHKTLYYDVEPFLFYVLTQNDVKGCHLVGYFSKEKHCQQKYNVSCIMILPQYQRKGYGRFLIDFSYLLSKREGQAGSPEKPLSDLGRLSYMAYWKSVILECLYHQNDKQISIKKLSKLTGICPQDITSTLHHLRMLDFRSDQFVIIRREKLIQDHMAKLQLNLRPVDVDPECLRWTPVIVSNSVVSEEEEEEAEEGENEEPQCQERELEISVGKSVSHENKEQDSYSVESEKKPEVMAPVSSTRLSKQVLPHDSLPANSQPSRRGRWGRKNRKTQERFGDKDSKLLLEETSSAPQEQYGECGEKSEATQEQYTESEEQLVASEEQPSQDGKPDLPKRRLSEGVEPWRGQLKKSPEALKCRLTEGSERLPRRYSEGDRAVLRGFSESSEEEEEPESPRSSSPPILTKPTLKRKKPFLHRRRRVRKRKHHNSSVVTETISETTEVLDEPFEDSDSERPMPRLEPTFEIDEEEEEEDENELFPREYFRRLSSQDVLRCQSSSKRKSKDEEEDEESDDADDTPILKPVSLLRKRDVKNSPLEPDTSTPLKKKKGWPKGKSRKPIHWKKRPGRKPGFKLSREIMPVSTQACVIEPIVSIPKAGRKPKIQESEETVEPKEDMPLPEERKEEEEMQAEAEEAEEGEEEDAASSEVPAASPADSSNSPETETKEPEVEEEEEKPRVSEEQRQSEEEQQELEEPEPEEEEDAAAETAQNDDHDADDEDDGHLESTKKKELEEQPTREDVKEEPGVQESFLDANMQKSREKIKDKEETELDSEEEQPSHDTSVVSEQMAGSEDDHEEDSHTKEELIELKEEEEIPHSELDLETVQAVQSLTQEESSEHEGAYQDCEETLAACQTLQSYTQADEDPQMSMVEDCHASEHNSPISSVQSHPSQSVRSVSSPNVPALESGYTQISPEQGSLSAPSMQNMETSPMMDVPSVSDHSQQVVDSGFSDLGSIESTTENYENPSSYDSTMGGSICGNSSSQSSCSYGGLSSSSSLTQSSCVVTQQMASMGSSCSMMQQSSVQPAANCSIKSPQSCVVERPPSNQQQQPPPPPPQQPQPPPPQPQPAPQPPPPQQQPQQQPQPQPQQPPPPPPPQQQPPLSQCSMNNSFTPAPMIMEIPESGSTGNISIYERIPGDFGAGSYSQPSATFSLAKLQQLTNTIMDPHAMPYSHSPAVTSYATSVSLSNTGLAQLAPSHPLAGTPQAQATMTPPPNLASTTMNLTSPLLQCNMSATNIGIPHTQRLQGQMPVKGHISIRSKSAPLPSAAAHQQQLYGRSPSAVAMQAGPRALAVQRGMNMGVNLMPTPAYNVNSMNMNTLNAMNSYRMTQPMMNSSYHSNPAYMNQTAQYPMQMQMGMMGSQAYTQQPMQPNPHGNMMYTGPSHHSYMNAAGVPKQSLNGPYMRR
`COc1cc(C)nc(OC)c1S(=O)(=O)Nc1noc2cc(Cn3cccn3)c3c(c12)OCCCC3` [Compound 21, N-(6-((1H-pyrazol-1-yl)methyl)-2,3,4,5-tetrahydrooxepino [3′,2′:5,6]benzo[1,2-d]isoxazol-10-yl)-2,4-dimethoxy-6-methylpyridine-3-sulfonamide] came in with an IC50 below 10 nM. Turning to `O=S(=O)(Nc1noc2cc(Cn3cccn3)cc(OC(F)F)c12)c1ccccc1OC(F)(F)F` [Compound 7, N-(6-((1H-pyrazol-1-yl)methyl)-4-(difluoromethoxy)benzo[d]isoxazol-3-yl)-2-(trifluoromethoxy)benzenesulfonamide], the half-inhibitory concentration (IC50) lay in the range of 10 to 1000 nM. In the case of `C#Cc1cc(OC)c(S(=O)(=O)Nc2noc3cc(Cn4cccn4)cc(OCF)c23)c(OC)n1` [Compound 54, N-(6-((1H-pyrazol-1-yl)methyl)-4-(fluoromethoxy)benzo[d]isoxazol-3-yl)-6-ethynyl-2,4-dimethoxypyridine-3-sulfonamide], the 50% inhibitory concentration (IC50) is below 10 nM. As for `COc1ccnc(OC)c1S(=O)(=O)Nc1noc2cc(Cn3cccn3)cc(OC)c12` [Compound 2, N-(6-((1H-pyrazol-1-yl)methyl)-4-methoxybenzo[d]isoxazol-3-yl)-2,4-dimethoxypyridine-3-sulfonamide], the figure is 10 to 100 nM; as for `COc1ccnc(OC)c1S(=O)(=O)Nc1noc2cc(Cn3cccn3)cc(OC(F)F)c12` [Compound 5, N-(6-((1H-pyrazol-1-yl)methyl)-4-(difluoromethoxy)benzo[d]isoxazol-3-yl)-2,4-dimethoxypyridine-3-sulfonamide], 10 to 100 nM; as for `COc1ccccc1S(=O)(=O)Nc1noc2cc(Cn3cccn3)cc(OC(F)F)c12` [Compound 6, N-(6-((1H-pyrazol-1-yl)methyl)-4-(difluoromethoxy)benzo[d]isoxazol-3-yl)-2-methoxybenzenesulfonamide], 10 to 100 nM. `COc1cc(C)nc(OC)c1S(=O)(=O)Nc1noc2cc(Cn3cccn3)cc(OCF)c12` [Compound 37]: the half-maximal inhibitory concentration (IC50) is below 10 nM. `COc1cc(C)nc(OC)c1S(=O)(=O)Nc1noc2cc(Cn3cccn3)cc(OC)c12` [Compound 11, N-(6-((1H-pyrazol-1-yl)methyl)-4-methoxybenzo[d]isoxazol-3-yl)-2,4-dimethoxy-6-methylpyridine-3-sulfonamide] displayed an IC50 below 10 nM. Compound `COc1ccnc(OC)c1S(=O)(=O)Nc1noc2cc(Cn3cccn3)cc(OCF)c12` [Compound 48, N-(6-((1H-pyrazol-1-yl)methyl)-4-(fluoromethoxy)benzo[d]isoxazol-3-yl)-2,4-dimethoxypyridine-3-sulfonamide] showed an IC50 below 10 nM. Regarding `COc1ccnc(OC)c1S(=O)(=O)Nc1noc2cc(Cn3cccn3)c3c(c12)OCCC3` [Compound 17, N-(5-((1H-pyrazol-1-yl)methyl)-3,4-dihydro-2H-chromeno [8,7-d]isoxazol-9-yl)-2,4-dimethoxypyridine-3-sulfonamide], the concentration for half-maximal inhibition (IC50) is below 10 nM. As for `COc1ccccc1S(=O)(=O)Nc1noc2cc(Cn3cccn3)c3c(c12)OCCC3` [Compound 15, N-(5-((1H-pyrazol-1-yl)methyl)-3,4-dihydro-2H-chromeno [8,7-d]isoxazol-9-yl)-2-methoxybenzenesulfonamide], the figure is below 10 nM; as for `COc1cccc(OC)c1S(=O)(=O)Nc1noc2cc(Oc3cccnn3)c3c(c12)OCCC3` [Compound 30, 2,6-dimethoxy-N-(5-(pyridazin-3-yloxy)-3,4-dihydro-2H-chromeno[8,7-d]isoxazol-9-yl)benzenesulfonamide], 10 to 100 nM; as for `COc1ncccc1S(=O)(=O)Nc1noc2cc(Cn3cccn3)c3c(c12)OCCC3` [Compound 16, N-(5-((1H-pyrazol-1-yl)methyl)-3,4-dihydro-2H-chromeno [8,7-d]isoxazol-9-yl)-2-methoxypyridine-3-sulfonamide], 10 to 100 nM. As for `COc1ccccc1S(=O)(=O)Nc1noc2cc(Cn3cccn3)cc(OC(F)(F)F)c12` [Compound 12, N-(6-((1H-pyrazol-1-yl)methyl)-4-(trifluoromethoxy)benzo [d]isoxazol-3-yl)-2-methoxybenzenesulfonamide], the IC50 was in the range of 10 to 100 nM.

In turn, `COc1ccnc(OC)c1S(=O)(=O)Nc1noc2cc(Cn3cccn3)c(F)c(OCF)c12` [Compound 42, N-(6-((1H-pyrazol-1-yl)methyl)-5-fluoro-4-(fluoromethoxy)benzo[d]isoxazol-3-yl)-2,4-dimethoxypyridine-3-sulfonamide] returned an IC50 of 10 to 100 nM. `COc1cccc(OC)c1S(=O)(=O)Nc1noc2cc(Cn3cccn3)cnc12` [Compound 1, N-(6-((1H-pyrazol-1-yl)methyl)isoxazolo[4,5-b]pyridin-3-yl)-2,6-dimethoxybenzenesulfonamide] had an IC50 of 10 to 1000 nM. `COc1cccc(OC)c1S(=O)(=O)Nc1noc2cc(Cn3cccn3)cc(OCC(F)(F)F)c12` [Compound 4, N-(6-((1H-pyrazol-1-yl)methyl)-4-(2,2,2-trifluoroethoxy)benzo[d]isoxazol-3-yl)-2,6-dimethoxybenzenesulfonamide] gave a concentration for half-maximal inhibition (IC50) of 10 to 100 nM. The result for `COc1cccc(OC)c1S(=O)(=O)Nc1noc2cc(Cn3cccn3)cc(OC(F)(F)F)c12` [Compound 8, N-(6-((1H-pyrazol-1-yl)methyl)-4-(trifluoromethoxy)benzo[d]isoxazol-3-yl)-2,6-dimethoxybenzenesulfonamide] reads 10 to 100 nM. The compound `COc1cc(C(F)(F)F)nc(OC)c1S(=O)(=O)Nc1noc2cc(Cn3cccn3)cc(OCF)c12` [Compound 51, N-(6-((1H-pyrazol-1-yl)methyl)-4-(fluoromethoxy)benzo[d]isoxazol-3-yl)-2,4-dimethoxy-6-(trifluoromethyl)pyridine-3-sulfonamide] yielded an IC50 below 10 nM.

As for `COc1cc(C(F)F)nc(OC)c1S(=O)(=O)Nc1noc2cc(Cn3cccn3)cc(OCF)c12` [Compound 50, N-(6-((1H-pyrazol-1-yl)methyl)-4-(fluoromethoxy)benzo[d]isoxazol-3-yl)-6-(difluoromethyl)-2,4-dimethoxypyridine-3-sulfonamide], the half-inhibitory concentration (IC50) was 10 to 1000 nM. The result for `COc1cccc(OC)c1S(=O)(=O)Nc1noc2cc(Cc3ccccn3)cc(OCF)c12` [Compound 45, N-(4-(fluoromethoxy)-6-(pyridin-2-ylmethyl)benzo[d]isoxazol-3-yl)-2,6-dimethoxybenzenesulfonamide] reads 10 to 100 nM; that for `COc1ccnc(OC)c1S(=O)(=O)Nc1noc2cc(Cn3cccn3)c3c(c12)OCCCC3` [Compound 20, N-(6-((1H-pyrazol-1-yl)methyl)-2,3,4,5-tetrahydrooxepino [3′,2′:5,6]benzo[1,2-d]isoxazol-10-yl)-2,4-dimethoxypyridine-3-sulfonamide], below 10 nM; that for `COc1cc(C)ncc1S(=O)(=O)Nc1noc2cc(Cn3cccn3)cc(OC)c12` [Compound 38, N-(6-((1H-pyrazol-1-yl)methyl)-4-methoxybenzo[d]isoxazol-3-yl)-4-methoxy-6-methylpyridine-3-sulfonamide], 10 to 1000 nM. With `COc1cccc(OC)c1S(=O)(=O)Nc1noc2cc(Cn3cccn3)cc(OCF)c12` [Compound 31, N-(6-((1H-pyrazol-1-yl)methyl)-4-(fluoromethoxy)benzo [d]isoxazol-3-yl)-2,6-dimethoxybenzenesulfonamide], the IC50 is below 10 nM. The compound `COc1cc(C)nc(OC)c1S(=O)(=O)Nc1noc2cc(Cn3cccn3)c3c(c12)OCCC3` [Compound 18, N-(5-((1H-pyrazol-1-yl)methyl)-3,4-dihydro-2H-chromeno [8,7-d]isoxazol-9-yl)-2,4-dimethoxy-6-methylpyridine-3-sulfonamide] had a half-inhibitory concentration (IC50) below 10 nM.

The compound `COc1ccccc1S(=O)(=O)Nc1noc2cc(Oc3ccccn3)c3c(c12)OCCC3` [Compound 25, 2-methoxy-N-(5-(pyridin-2-yloxy)-3,4-dihydro-2H-chromeno [8,7-d]isoxazol-9-yl)benzenesulfonamide] gave an IC50 below 10 nM. As for `COc1ccnc(OC)c1S(=O)(=O)Nc1noc2cc(Cn3cccn3)c3c(c12)OCC3` [Compound 32, N-(4-((1H-pyrazol-1-yl)methyl)-2,3-dihydrobenzofuro[7,6-d]isoxazol-8-yl)-2,4-dimethoxypyridine-3-sulfonamide], the half-maximal inhibitory concentration (IC50) is 10 to 100 nM. `COc1cccc(OC)c1S(=O)(=O)Nc1noc2nc(Cn3cccn3)cc(OC)c12` [Compound 13, N-(6-((1H-pyrazol-1-yl)methyl)-4-methoxyisoxazolo[5,4-b]pyridin-3-yl)-2,6-dimethoxybenzenesulfonamide] came in with an IC50 above 1000 nM. The result for `COc1cccc(OC)c1S(=O)(=O)Nc1noc2cc(Oc3ncccc3C)c3c(c12)OCCC3` [Compound 36, 2,6-dimethoxy-N-(5-((3-methylpyridin-2-yl)oxy)-3,4-dihydro-2H-chromeno[8,7-d]isoxazol-9-yl)benzenesulfonamide] reads below 10 nM. Regarding `COc1cc(C(F)(F)F)nc(OC)c1S(=O)(=O)Nc1noc2cc(Cn3cccn3)cc(OC)c12` [Compound 41, N-(6-((1H-pyrazol-1-yl)methyl)-4-methoxybenzo[d]isoxazol-3-yl)-2,4-dimethoxy-6-(trifluoromethyl)pyridine-3-sulfonamide], the IC50 fell in the range of 10 to 100 nM.
